Experimental data from US20260250337A1, “HYBRID ANTIMICROBIAL PEPTIDES” (UNIVERSIDADE FEDERAL DO ABC, priority 2023, published 2026).
Entries after “also recorded” stand apart in the source; their conditions may differ. No end group written: not given here.

Experiments:
[1] = system: bacterial strains; assay: Antimicrobial activity over the panel of strains; format: cell-based; conditions: range of concentrations tested
Description: (§1) Initially, the antimicrobial activity was determined by liquid growth inhibition assays, as previously described by Pedron et al.^62. Briefly, Peptone Broth and Potato Dextrose Broth (Invitrogen) were used for antibacterial and antifungal assays, respectively. Two-fold serial dilutions of peptides (0.09-50 μmol L^−1) and microorganisms (Serratia marcescens ATCC 4112, Enterobacter cloacae β-12, Micrococcus luteus A270, Bacillus megaterium ATCC 10778, Bacillus subtilis ATCC 6633, Candida albicans MDM8, and Candida tropicalis IOC 4560) were incubated at 37° C. for 18 h (for bacteria) or 24 h (for fungi), and microbial growth was assessed by absorbance measurements at 595 nm. Experiments were performed in three biological repeats.
Method. The minimal inhibitory concentration (MIC) against the ESKAPE pathogens was determined using the broth microdilution method^81, 82 in Luria-Bertani (LB) medium. The MIC value was defined as the lowest concentration of peptide at which no microbial growth was observed. A. baumannii ATCC19606, E. coli ATCC11775, E. coli AIC221, E. coli AIC222, K. pneumoniae ATCC13883, S. aureus ATCC12600 P. aeruginosa PAO1, and P. aeruginosa PA14 were incubated on agar plates, and after 24 h, three isolated colonies were inoculated to 5 mL of Luria-Bertani (LB) broth and maintained at 37° C. overnight with shaking. Peptides were then added to 96-well polystyrene microtiter plates at concentrations ranging from 0 to 128 μmol L^−1, and 5×10^5 CFU mL^−1 of each bacterium was inoculated in each well. The plates were incubated at 37° C. for 24 h. Bacterial growth was measured using a microplate reader at 610 nm. Three independent replicates were performed.

[2] = system: human erythrocytes; assay: Hemolytic activity assay; format: cell-based; conditions: human erythrocytes, 1 h; for MHC: room temperature, concentration with approximately 0% of hemolytic activity
Description: Method. Assays against freshly collected human erythrocytes were performed following protocols described by Pedron et al. 62. Briefly, peptide aliquots at concentrations ranging from 0.1 to 100 μmol L−1 were incubated with a suspension of erythrocytes at room temperature for 1 h. The samples were then centrifuged, and the absorbance of the supernatant was measured at 405 nm. The MHC (maximal non-hemolytic concentration) was determined as the maximal concentration at which 100% of the erythrocytes were viable. The surfactant SDS and PBS buffer were used as positive88, 89 and negative controls, respectively. Sodium heparin was used as an anticoagulant when collecting human blood. Three biological repeats were performed.

[3] = system: S. marcescens ATCC 4112; assay: Liquid growth inhibition assay, MIC; format: cell-based, Serratia marcescens; conditions: 37° C., 18 h
Description: as §1

[4] = system: C. tropicalis IOC 4560; assay: Liquid growth inhibition assay, MIC (antifungal); format: cell-based, Candida tropicalis; conditions: 37° C., 24 h
Description: as §1

[5] = system: E. cloacae β-12; assay: Liquid growth inhibition assay, MIC; format: cell-based, Enterobacter cloacae; conditions: 37° C., 18 h
Description: as §1

[6] = Resistance to degradation in fetal bovine serum; format: in vitro ADME; conditions: bovine, fetal bovine serum, 25% in water, fetal bovine serum 25% in water, 37° C.; for remaining at 0.5 h: 30 min, read-out: remaining peptide, 30 min; for remaining at 1 h: read-out: remaining peptide, 1 h; for remaining at 2 h: read-out: remaining peptide, 2 h
Description: The resistance to proteolytic degradation of the hybrid peptides was assessed by exposing them for 6 h to serum peptidases in a fetal bovine serum solution^68, 69 (FIG. 5a and Table S4). The peptide degradation kinetics were calculated by integrating the peak area of the peak in relation to the peptide at the beginning of the experiment (time=0) and comparing it to the integrated peak area relative to the peptides after exposure to the enzymes at time points: 0.5, 1, 2, 4, and 6 h (FIG. 5a and Table S4). […] However, AV was resistant to degradation against proteases, with almost 40% peptide content remaining after 4 h of exposure (FIG. 5a and Table S4). […] VP was almost entirely degraded after 30 min (22% of peptide remaining). […] D-amino acid substitutions have been used as alternatives to prevent the degradation of AMPs. For example, Qiu et. al. described a protonectin analog with a D-Lys residue in position 10 as an alternative to protonectin; this analog is not degraded and has higher antimicrobial activity against bacteria and fungi than the original peptide.
Methods. Stability assays were performed following the protocol described by Torres et al.^71. Briefly, a peptide solution was added to GIBCO fetal bovine serum diluted to 25% in water and kept at 37° C. The degradation kinetics were monitored by liquid chromatography and the percentage of peptide remaining was calculated by integrating the peptide peak area. The experiments were performed as three independent replicates, and aliquots were taken at 0, 0.5, 1, 2, 4, and 6 h.

[7] = system: C. albicans MDM8; assay: Liquid growth inhibition assay, MIC (antifungal); format: cell-based, Candida albicans; conditions: 37° C., 24 h
Description: as §1

[8] = system: S. epidermidis ATCC 12228; assay: Liquid growth inhibition assay, MIC; format: cell-based; conditions: 37° C., 18 h
[9] = system: Plasmodium gallinaceum sporozoites; assay: Antiplasmodial activity, fluorescence microscopy; format: cell-based; conditions: for P. gallinaceum (% sporozoites at 0.8 μmol L^−1): fluorescent (propidium iodide stained) sporozoites, 37° C., 1 h; for antiplasmodial activity: P. gallinaceum sporozoites, concentration range tested
Description: Method. The activity of the peptides against Plasmodium gallinaceum sporozoites was determined by fluorescence microscopy, as previously described by Silva et. al.^83. Briefly, 9,000 sporozoites were isolated from the glands of infected Aedes aegypti mosquitos and incubated with serially diluted peptides (ranging from 0.1 to 1.6 μmol L^−1) at 37° C. for 1 h. A PBS solution and the surfactant digitonin^84, 85 were used as negative and positive controls, respectively. Propidium iodide was used to stain dead cells. Assays were executed using fluorescence microscopy. Three biological repeats each with three different mosquito batches (n=9) were used.

[10] = system: M. luteus A270; assay: Liquid growth inhibition assay, MIC; format: cell-based, Micrococcus luteus; conditions: 37° C., 18 h
Description: as §1

[11] = Circular dichroism, helical fraction (Lifson-Roig); format: physicochemical; conditions: peptide 50 μmol L^−1; for Helical fraction (fH) PBS: PBS 10 mmol L^−1, pH 7.4; for Helical fraction (fH) POPC: POPC 10 mmol L^−1; for Helical fraction (fH) POPC:DOPE: POPC:DOPE 3:1, mol:mol; for Helical fraction (fH) POPC:DOPE / Helical fraction (fH) POPC:POPG: 10 mmol L^−1; for Helical fraction (fH) POPC:POPG: POPC:POPG 3:1, mol:mol; for Helical fraction (fH) SDS: SDS 20 mmol L^−1 in water; for Helical fraction (fH) TFE/Water: TFE in water (3:2, v:v)
Description: Method. Circular dichroism (CD) assays were performed with a Spectropolarimeter Jasco Mod. J-815 (JascoCorp). CD spectra were obtained in Far-UV (195-260 nm), and analyzed in the following solutions: water, 2,2,2-trifluoroethanol (TFE) in water (3:2, v:v), phosphate buffer saline (PBS, 10 mmol L^−1, pH 7.4), sodium dodecyl sulfate (SDS 20 mmol L^−1) in water, palmitoyloleoylphosphatidylcholine (POPC; 10 mmol L^−1), palmitoyloleoylphosphatidylcholine:dioleylphosphatidylethanolamine (POPC:DOPE; 3:1, mol:mol, 10 mmol L^−1) and palmitoyloleoylphosphatidylcholine:palmitoyloleoylphosphatidylglycerol (POPC:POPG; 3:1, mol:mol, 10 mmol L^−1) at a peptide concentration of 50 μmol L^−1. These experiments were performed as described in detail by Pedron et al.^62.

[12] = system: B. megaterium ATCC 10778; assay: Liquid growth inhibition assay, MIC; format: cell-based, Bacillus megaterium; conditions: 37° C., 18 h
Description: as §1

[13] = at 100 μmol L^−1; cited from earlier work
[14] = system: MCF-7 human breast cancer cells; assay: Anticancer activity, MTT assay; format: cell-based; conditions: incubation time not stated
Description: The anticancer activity assays were performed using MCF-10A human breast epithelial cells and MCF-7 mammary cancer cells as previously described by Pedron et al. 86. Briefly, the day before treatment, the cells were incubated at 37° C. and 5% CO2 for 24 h. The cells were treated with peptides ranging from 12.5 to 100 μmol L^−1 (MCF10-A cells) and 0.8 to 100 μmol L^−1 (MCF-7 cells) for 4 h and 24 h at 37° C., and cell viability was measured using 3-(4,5-Dimethylthiazol-2-yl)-2,5-diphenyltetrazolium bromide (MTT) assays 87. Three independent replicates were performed in each case.

SLGALINVLKSGG-NH2 [DV, Ser-Leu-Gly-Ala-Leu-Ile-Asn-Val-Leu-Lys-Ser-Gly-Gly]
antimicrobial activity [1]: No antimicrobial activities were observed; also recorded: did not exhibit antimicrobial activity | Hemolytic activity, concentration of peptide needed to kill 10% of red blood cells [2]: 0.1 µmol/L | MHC [2]: 0.1 µmol/L | MIC S. marcescens ATCC 4112 [3]: >50 µM | MIC C. tropicalis IOC 4560 [4]: >50 µM | MIC E. cloacae β-12 [5]: >50 µM | remaining at 0.5 h [6]: ~50% | remaining at 1 h [6]: ~50% | remaining at 2 h [6]: ~50% | remaining at 4 h ([6]; 4 h, read-out: remaining peptide, 4 h): ~50% | remaining at 6 h ([6]; 6 h, read-out: remaining peptide, 6 h): ~50% | MIC C. albicans MDM8 [7]: >50 µM | MIC S. epidermidis ATCC 12228 [8]: >50 µM | P. gallinaceum (% sporozoites at 0.8 μmol L^−1) [9]: 31% | antiplasmodial activity [9]: did not exhibit significant antiplasmodial activity; also recorded: did not present antiplasmodial activity | MIC M. luteus A270 [10]: >50 µM | Helical fraction (fH) PBS [11]: 0.12 | Helical fraction (fH) POPC [11]: 0.08 | Helical fraction (fH) POPC:DOPE [11]: 0.11 | Helical fraction (fH) POPC:POPG [11]: 0.41 | Helical fraction (fH) SDS [11]: 0.62 | Helical fraction (fH) TFE/Water [11]: 0.90 | Helical fraction (fH) Water [11]: 0.11 | MIC B. megaterium ATCC 10778 [12]: >50 µM

SLLSLIRKLIT-NH2 [Decoralin, Ser-Leu-Leu-Ser-Len-Ile-Arg-Lys-Leu-Ile-Thr, reference compound]
hemolytic activity of decoralin [13]: low hemolytic activity | Hemolytic activity, concentration of peptide needed to kill 10% of red blood cells [2]: 1.6 µmol/L | MHC [2]: 1.6 µmol/L | MIC S. marcescens ATCC 4112 [3]: 3.1 µM | MIC C. tropicalis IOC 4560 [4]: 1.6 µM | MIC E. cloacae β-12 [5]: 6.3 µM | remaining at 0.5 h [6]: ~70% | remaining at 1 h [6]: < 30% | remaining at 2 h [6]: < 30% | MIC C. albicans MDM8 [7]: 0.8 µM | MIC S. epidermidis ATCC 12228 [8]: 6.3 µM | P. gallinaceum (% sporozoites at 0.8 μmol L^−1) [9]: 0% | antiplasmodial activity [9]: no activity; also recorded: did not present antiplasmodial activity | MIC M. luteus A270 [10]: 0.8 µM | concentration with activity against MCF-7 human breast cancer cells [14]: 50 µmol/L | Helical fraction (fH) PBS [11]: 0.06 | Helical fraction (fH) POPC [11]: 0.23 | Helical fraction (fH) POPC:DOPE [11]: 0.19 | Helical fraction (fH) POPC:POPG [11]: 0.40 | Helical fraction (fH) SDS [11]: 0.22 | Helical fraction (fH) TFE/Water [11]: 0.29 | Helical fraction (fH) Water [11]: 0.05 | MIC B. megaterium ATCC 10778 [12]: 1.6 µM
